Data as given in article PMC11002876, “KcsA-Kv1.x chimeras with complete ligand-binding sites provide improved predictivity for screening selective Kv1.x blockers” (The Journal of Biological Chemistry, 2024).
Where a SMILES comes first, the peptide text is derived from it.

molecular target: T1, KcsA-Kv1.2 T-only chimera (Streptomyces lividans, UniProt P0A334, R52A/G53D/A54E/P55R/G56E/A57S/L59F/I60P/T61S/Y62I/R64D); assay: Phage ELISA-binding assay, KcsA-Kv1.2 T-only; set-up: species or system human Kv1.2 turret in Streptomyces lividans KcsA; details: toxin displayed on M13 phage, Fig. 7C
T1 sequence (P0A334 1-160 R52A/G53D/A54E/P55R/G56E/A57S/L59F/I60P/T61S/Y62I/R64D): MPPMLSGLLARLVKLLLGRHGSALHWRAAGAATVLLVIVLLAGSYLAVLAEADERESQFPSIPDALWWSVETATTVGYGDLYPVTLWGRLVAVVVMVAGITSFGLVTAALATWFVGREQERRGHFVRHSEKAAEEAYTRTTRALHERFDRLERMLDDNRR
Description: Phage display test solutions were prepared according to routine phage display protocols ([62]). Phosphorylated and annealed oligonucleotides encoding the peptide construct were ligated into linearized pAS62 phagemid vector (https://patents.google.com/patent/WO2022144560A1/en) at a vector/insert ratio of 1:3. The final phagemid construct harbored a signal sequence followed by the peptide of interest, a linker sequence ([…]), and the C-terminal part of the P3 coat protein (amino acids: 216-424 of NP_510891.1). Chemically competent XL1-Blue E. coli cells (2022249, Agilent) were transformed with the ligation product and then streaked onto ampicillin (100 μg/ml) containing LB/Amp plates and incubated for 16 h at 37 °C. A few clones were sequenced, and a single colony with confirmed target sequence was inoculated into 3 ml 2 YT medium supplemented with 100 μg/ml ampicillin and incubated at 37 °C until the culture reached midlog phase. The culture was infected with M13KO7 helper phage (N0315S, New England Biolabs) (phage/cell ratio 10:1) and was incubated for 30 min at 37 °C. The 3 ml culture was transferred into 200 ml 2YT medium, supplemented with 100 μg/ml ampicillin and 25 μg/ml kanamycin, and incubated overnight at 37 °C. The overnight cell culture (200 ml) was pelleted by centrifugation at 8000g for 10 min in 400 ml centrifuge tubes at 4 °C. […] The particle concentrations of phage solutions were determined using a NanoDrop One C (Thermo Fisher Scientific) spectrophotometer. The phage particle concentration was assessed according to the formula: (A268–A320) × 5 × 10^12 particles/ml ([62]). […]
Phage stock solutions were diluted to working concentration with phage resuspension buffer supplemented with 2 mM DDM. […] Following blocking, the wells were washed 4× with washing buffer (300 μl TBS-Tween, 0.1% v/v) using a Wellwash Versa microplate washer (Thermo Fisher Scientific); then 50 μl phage solution (in TBS-BSA-Tween, 0.1% v/v, 2 mM DDM) at determined phage concentration was added to the wells and incubated for 1 h at room temperature on a horizontal shaker. […]

SMILES	phage binding to KcsA-Kv1.2 T-only, in words
CC[C@H](C)[C@@H]1NC(=O)[C@@H]2CSSC[C@H](NC(=O)[C@H](CO)NC(=O)[C@@H](N)C(C)C)C(=O)N[C@@H]([C@@H](C)O)C(=O)NCC(=O)N[C@@H](CO)C(=O)N[C@@H](CCCCN)C(=O)N[C@@H](CC(=O)O)C(=O)N[C@@H](CSSC[C@@H](C(=O)N[C@@H](CCCCN)C(=O)N[C@H]3CSSC[C@@H](C(N)=O)NC(=O)CNC(=O)[C@H](Cc4ccc(O)cc4)NC3=O)NC(=O)[C@H](CO)NC(=O)[C@H](CCCCN)NC(=O)[C@H](CC(N)=O)NC1=O)C(=O)N[C@@H](Cc1ccc(O)cc1)C(=O)N[C@@H](C)C(=O)N1CCC[C@H]1C(=O)N[C@H]1CSSC[C@H](NC(=O)CNC(=O)[C@H]([C@@H](C)O)NC(=O)[C@H](CCC(N)=O)NC(=O)[C@H](CCCCN)NC(=O)[C@H](CCCNC(=N)N)NC1=O)C(=O)N1CCC[C@H]1C(=O)N[C@@H](CC(N)=O)C(=O)N[C@@H](C)C(=O)N[C@@H](CCCCN)C(=O)N2 [MTX, Maurotoxin] (HELM PEPTIDE1{V.S.C.T.G.S.K.D.C.Y.A.P.C.R.K.Q.T.G.C.P.N.A.K.C.I.N.K.S.C.K.C.Y.G.C.[am]}$PEPTIDE1,PEPTIDE1,3:R3-24:R3|PEPTIDE1,PEPTIDE1,9:R3-29:R3|PEPTIDE1,PEPTIDE1,13:R3-19:R3|PEPTIDE1,PEPTIDE1,31:R3-34:R3$$$V2.0; N-terminus and C-terminus assumed)	negligible binding
CC[C@H](C)[C@@H]1NC(=O)[C@@H](NC(=O)[C@H](CO)NC(=O)[C@@H](N)CCCNC(=N)N)CSSC[C@@H](C(=O)O)NC(=O)[C@H]([C@@H](C)O)NC(=O)CNC(=O)[C@@H]2CSSC[C@@H]3NC(=O)[C@H](CCC(N)=O)NC(=O)[C@H](Cc4ccccc4)NC(=O)[C@H](C)NC(=O)[C@H]([C@@H](C)O)NC(=O)[C@H](CSSC[C@H](NC(=O)[C@H](Cc4ccccc4)NC(=O)[C@H](CO)NC(=O)[C@H](CC(C)C)NC(=O)[C@H](CCCNC(=N)N)NC(=O)[C@H](Cc4ccc(O)cc4)NC(=O)[C@H](CCCCN)NC(=O)[C@H](CCSC)NC(=O)[C@H](CO)NC(=O)[C@H](Cc4c[nH]cn4)NC(=O)[C@H](CCCCN)NC3=O)C(=O)N[C@@H](CCCNC(=N)N)C(=O)N[C@@H](CCCCN)C(=O)N[C@@H]([C@@H](C)O)C(=O)N2)NC(=O)[C@H](CCCNC(=N)N)NC(=O)[C@H](CO)NC(=O)[C@H](CCCCN)NC(=O)[C@@H]2CCCN2C(=O)[C@H]([C@@H](C)CC)NC(=O)[C@H]([C@@H](C)O)NC(=O)[C@H](CC(=O)O)NC1=O [ShK, Stichodactyla toxin]	inconsistent with their published channel blocking potencies
CC[C@H](C)[C@H](NC(=O)[C@H](CCC(=O)O)NC(=O)[C@@H](NC(=O)CN)C(C)C)C(=O)N[C@@H](CC(N)=O)C(=O)N[C@H](C(=O)N[C@@H](CCCCN)C(=O)N[C@H]1CSSC[C@@H]2NC(=O)[C@H](CCCCN)NC(=O)CNC(=O)[C@H](Cc3ccccc3)NC(=O)[C@H](CCCNC(=N)N)NC(=O)[C@H](CCSC)NC(=O)CNC(=O)[C@H](C)NC(=O)[C@H](CC(=O)O)NC(=O)[C@H](CCCCN)NC(=O)[C@@H]3CSSC[C@@H](C(=O)N[C@H](C(=O)N4CCC[C@H]4C(=O)N[C@@H](CCCCN)C(=O)O)[C@@H](C)O)NC(=O)[C@H](Cc4c[nH]cn4)NC(=O)[C@H](CSSC[C@H](NC(=O)[C@H](CCC(N)=O)NC(=O)[C@@H]4CCCN4C(=O)[C@H](CO)NC(=O)CNC(=O)[C@H](CO)NC1=O)C(=O)N[C@@H](CC(C)C)C(=O)N[C@@H](CCCCN)C(=O)N1CCC[C@H]1C(=O)N3)NC(=O)[C@H](CCCCN)NC(=O)[C@H](CCCNC(=N)N)NC(=O)[C@H](CC(N)=O)NC(=O)[C@H](CCSC)NC2=O)C(C)C [KTX1, Kaliotoxin-1]	inconsistent with their published channel blocking potencies
